System: NCI-H1341 complex spheroids, percent test/control
Assay: Anticancer human tumor NCI-H1341 cell line growth inhibition [AhR];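 also: spheroids exposed to agents for seven days before readout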
Conditions: for IC50: curve of first compound; for viability, T/C: stronger effect = lower value
How it was run: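 Spheroids combined tumor cells with HUVEC endothelial cells and human MSCs as stroma. AhR antagonists were paired with standard or investigational drugs, each dosed in half-log steps down from near clinical Cmax, or from 10 microM where Cmax was unknown.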

[1] = second compound 0.1 µM, first compound 0.00949 µM
[2] = second compound 0.1 µM, first compound 0.03 µM
[3] = second compound 0.1 µM, first compound 0.0949 µM
[4] = second compound 0.1 µM, first compound 0.3 µM
[5] = second compound 0.1 µM, first compound 0.949 µM
[6] = second compound 0.1 µM, first compound 3 µM
[7] = second compound 0.316 µM, first compound 0.00949 µM
[8] = second compound 0.316 µM, first compound 0.03 µM
[9] = second compound 0.316 µM, first compound 0.0949 µM
[10] = second compound 0.316 µM, first compound 0.3 µM
[11] = second compound 0.316 µM, first compound 0.949 µM
[12] = second compound 0.316 µM, first compound 3 µM
[13] = second compound 1 µM, first compound 0.00949 µM
[14] = second compound 1 µM, first compound 0.03 µM
[15] = second compound 1 µM, first compound 0.0949 µM
[16] = second compound 1 µM, first compound 0.3 µM
[17] = second compound 1 µM, first compound 0.949 µM
[18] = second compound 1 µM, first compound 3 µM
[19] = second compound 3.16 µM, first compound 0.00949 µM
[20] = second compound 3.16 µM, first compound 0.03 µM
[21] = second compound 3.16 µM, first compound 0.0949 µM
[22] = second compound 3.16 µM, first compound 0.3 µM
[23] = second compound 3.16 µM, first compound 0.949 µM
[24] = second compound 3.16 µM, first compound 3 µM
[25] = second compound 10 µM, first compound 0.00949 µM
[26] = second compound 10 µM, first compound 0.03 µM
[27] = second compound 10 µM, first compound 0.0949 µM
[28] = second compound 10 µM, first compound 0.3 µM
[29] = second compound 10 µM, first compound 0.949 µM
[30] = second compound 10 µM, first compound 3 µM

SMILES	IC50 (second compound 0.1 µM) [nM]	IC50 (second compound 0.316 µM) [nM]	IC50 (second compound 1 µM) [nM]	IC50 (second compound 3.16 µM) [nM]	IC50 (second compound 10 µM) [nM]	viability, T/C [1] [%]	viability, T/C [2] [%]	viability, T/C [3] [%]	viability, T/C [4] [%]	viability, T/C [7] [%]	viability, T/C [8] [%]	viability, T/C [9] [%]	viability, T/C [10] [%]	viability, T/C [13] [%]	viability, T/C [14] [%]	viability, T/C [15] [%]	viability, T/C [16] [%]	viability, T/C [19] [%]	viability, T/C [20] [%]	viability, T/C [21] [%]	further results
CCN(c1cc(-c2ccc(CN3CCOCC3)cc2)cc(C(=O)NCc2c(C)cc(C)[nH]c2=O)c1C)C1CCOCC1 + CC(CO)NC(=O)c1cc(-c2ccc(Cl)cc2)nn(-c2cnn(C)c2)c1=O	> 3000	> 3000	> 3000	> 3000	> 3000	89.1	72.4	84	68.1	81.9	77	77.9	65.8	91.7	73.6	78	63	84.1	82.5	74.9	viability, T/C [5]: 75.2%; viability, T/C [6]: 57.6%; viability, T/C [11]: 65.7%; viability, T/C [12]: 59.7%; viability, T/C [17]: 63.1%; viability, T/C [18]: 62%; viability, T/C [22]: 71.4%; viability, T/C [23]: 61.9%; viability, T/C [24]: 62.4%; viability, T/C [25]: 67.5%; viability, T/C [26]: 79.2%; viability, T/C [27]: 73.3%; viability, T/C [28]: 70.4%; viability, T/C [29]: 65.7%; viability, T/C [30]: 57.4%
Nc1ncn(C2CC(O)C(CO)S2)c(=O)n1 (stereo not given) + CC(CO)NC(=O)c1cc(-c2ccc(Cl)cc2)nn(-c2cnn(C)c2)c1=O	271	220	223	214	234	91.2	89.3	63.6	48.7	84.5	89.8	78.3	39.2	91.8	79.6	76.2	41.3	85.6	82.7	69.2	viability, T/C (second compound 0.1 µM, first compound 0.000949 µM): 89.1%; viability, T/C (second compound 0.1 µM, first compound 0.003 µM): 94.3%; viability, T/C (second compound 0.316 µM, first compound 0.000949 µM): 94.6%; viability, T/C (second compound 0.316 µM, first compound 0.003 µM): 91.5%; viability, T/C (second compound 1 µM, first compound 0.000949 µM): 75.3%; viability, T/C (second compound 1 µM, first compound 0.003 µM): 105%; viability, T/C (second compound 3.16 µM, first compound 0.000949 µM): 86%; viability, T/C (second compound 3.16 µM, first compound 0.003 µM): 96.1%; viability, T/C [22]: 42%; viability, T/C (second compound 10 µM, first compound 0.000949 µM): 73.3%; viability, T/C (second compound 10 µM, first compound 0.003 µM): 73.1%; viability, T/C [25]: 79.1%; viability, T/C [26]: 69.2%; viability, T/C [27]: 63.6%; viability, T/C [28]: 46%
O=C(C=Cn1cnc(-c2cc(C(F)(F)F)cc(C(F)(F)F)c2)n1)NNc1cnccn1 + CC(CO)NC(=O)c1cc(-c2ccc(Cl)cc2)nn(-c2cnn(C)c2)c1=O	47.3	38.7	53.4	39.2	32.2	70.1	66	25.8	8.14	81.5	56.4	26.9	8.82	72.9	76.5	25.3	7.32	70.9	56.6	27.3	viability, T/C [5]: 7.31%; viability, T/C [6]: 3.24%; viability, T/C [11]: 4.72%; viability, T/C [12]: 3.56%; viability, T/C [17]: 5.36%; viability, T/C [18]: 3.2%; viability, T/C [22]: 7.55%; viability, T/C [23]: 4.07%; viability, T/C [24]: 4.94%; viability, T/C [25]: 62.8%; viability, T/C [26]: 51%; viability, T/C [27]: 27.2%; viability, T/C [28]: 8.24%; viability, T/C [29]: 5.11%; viability, T/C [30]: 4.13%

Source: PubChem BioAssay AID1919014 (Molecular Pharmacology Branch, DTP, NCI, 2023)
